Measured values as given in US20240409581A1, “SMALL-MOLECULE PEPTIDE AND USE THEREOF AGAINST METABOLIC-[…] LIVER DISEASE AND FOR REDUCING BODY WEIGHT” (Tunghai University, priority 2023, published 2024).

Columns and labels:
Format in all cases: in vivo, C57BL/6JNarl mice (male)
[1] = system: MAFLD-mode mice (diet with 60% kcal fat+30% v/v fructose corn syrup); experiment: Animal test: body, liver, spleen and white adipose tissue weights of MAFLD-mode mice; details: for Epididymal white adipose tissue / Final body weight / Liver weight / Mesenteric white adipose tissue / Perirenal white adipose tissue / Spleen weight: eight weeks, high-fat/fructose diet; for Initial body weight: before the eight-week test
Procedure: (§1) 100 five-week-old C57BL/6JNarl mice (male) were raised in an environment whose temperature was 22-25° C., whose relative humidity was 45%-60%, and which adopted a 12-hour light/12-hour darkness cycle. The mice were fed with common feed and water for three weeks and then randomly divided into 10 groups, whose subsequent treatments are as follows:
Group 1: This was the blank group. The mice in this group were fed with common animal feed and distilled water.
Group 2: This was the control group. The mice in this group were fed with a diet with 60% kcal fat+30% v/v fructose corn syrup (and a 0.5% carboxymethyl cellulose (CMC) solution) and thereby induced to develop into MAFLD-mode mice.
Group 3: This was the low-dosage YF dipeptide group. The mice in this group were fed with the Tyr-Phe dipeptide at a dose of 10 mg/kg/day, in addition to a diet with 60% kcal fat+30% v/v fructose corn syrup.
Group 4: This was the high-dosage YF dipeptide group. The mice in this group were fed with the Tyr-Phe dipeptide at a dose of 50 mg/kg/day, in addition to a diet with 60% kcal fat+30% v/v fructose corn syrup.
Group 5: This was the low-dosage FY dipeptide group. The mice in this group were fed with the Phe-Tyr dipeptide at a dose of 10 mg/kg/day, in addition to a diet with 60% kcal fat+30% v/v fructose corn syrup.
Group 6: This was the high-dosage FY dipeptide group. The mice in this group were fed with the Phe-Tyr dipeptide at a dose of 50 mg/kg/day, in addition to a diet with 60% kcal fat+30% v/v fructose corn syrup.
Group 7: This was the low-dosage EWYF tetrapeptide group. The mice in this group were fed with the Glu-Trp-Tyr-Phe tetrapeptide (which has the sequence of SEQ ID No.: 1) at a dose of 10 mg/kg/day, in addition to a diet with 60% kcal fat+30% v/v fructose corn syrup.
Group 8: This was the high-dosage EWYF tetrapeptide group. The mice in this group were fed with the Glu-Trp-Tyr-Phe tetrapeptide (which has the sequence of SEQ ID No.: 1) at a dose of 50 mg/kg/day, in addition to a diet with 60% kcal fat+30% v/v fructose corn syrup.
Group 9: This was the low-dosage EWFY tetrapeptide group. The mice in this group were fed with the Glu-Trp-Phe-Tyr tetrapeptide (which has the sequence of SEQ ID No.: 2) at a dose of 10 mg/kg/day, in addition to a diet with 60% kcal fat+30% v/v fructose corn syrup.
Group 10: This was the high-dosage EWFY tetrapeptide group. The mice in this group were fed with the Glu-Trp-Phe-Tyr tetrapeptide (which has the sequence of SEQ ID No.: 2) at a dose of 50 mg/kg/day, in addition to a diet with 60% kcal fat+30% v/v fructose corn syrup.
(§2) Each of the four peptides was mixed with 0.5% Carboxymethyl Cellulose (CMC) to form a peptide solution, before the peptide solution was fed into the stomach of each mouse in the corresponding group with a syringe.
(§3) The test lasted eight weeks. The body weights of, and the amounts of food consumed by, the mice in each group were measured and recorded each week. The mice were sacrificed at the end of the test, and the livers, spleens, and white adipose tissue of the mice in each group were weighed.

[2] = system: MAFLD-mode mice (diet with 60% kcal fat+30% v/v fructose corn syrup); experiment: Biochemical analysis of blood (sALT and serum lipid indices) of MAFLD-mode mice; details: eight weeks
Procedure: as §1, §2, §3
After the test of example 1, blood samples were taken from the mice in each group, and the serum alanine transaminase (sALT), serum triglyceride (sTG), serum total cholesterol (sTC), serum free fatty acid (sFFA), and serum very-low-density lipoprotein (sVLDL) levels of the blood samples were measured.

[3] = system: MAFLD-mode mice (diet with 60% kcal fat+30% v/v fructose corn syrup); experiment: Analysis of the hepatic lipid content (enzymatic colorimetric method) of MAFLD-mode mice; details: eight weeks, liver; for hVLDL (hepatic very-low-density lipoprotein): calculated as 1/5 of the hepatic triglyceride level;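 as to hTC (hepatic total cholesterol): reported in mg/dL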;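 as to hTG (hepatic triglyceride): reported in mg/dL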;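 as to hVLDL (hepatic very-low-density lipoprotein): reported in mg/dL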
Procedure: as §1, §2, §3
After the test of example 1, the mice in each group were sacrificed, and the livers of the mice were collected in order to measure the hepatic lipid content of the liver of each mouse by an enzymatic colorimetric method. The items measured were hepatic triglyceride (hTG), hepatic total cholesterol (hTC), hepatic free fatty acid (hFFA), and hepatic very-low-density lipoprotein (hVLDL), wherein the hVLDL level was calculated as ⅕ of the hepatic triglyceride level.

[4] = baseline of the 10 mg/kg/day group
[5] = baseline of the 50 mg/kg/day group

Substance | Epididymal white adipose tissue ([1]; 10 mg/kg/day into the stomach) [g] | Final body weight ([1]; 10 mg/kg/day into the stomach) [g] | Liver weight ([1]; 10 mg/kg/day into the stomach) [g] | Mesenteric white adipose tissue ([1]; 10 mg/kg/day into the stomach) [g] | Perirenal white adipose tissue ([1]; 10 mg/kg/day into the stomach) [g] | Spleen weight ([1]; 10 mg/kg/day into the stomach) [mg] | Epididymal white adipose tissue ([1]; 50 mg/kg/day into the stomach) [g] | Final body weight ([1]; 50 mg/kg/day into the stomach) [g] | Liver weight ([1]; 50 mg/kg/day into the stomach) [g] | Mesenteric white adipose tissue ([1]; 50 mg/kg/day into the stomach) [g] | Perirenal white adipose tissue ([1]; 50 mg/kg/day into the stomach) [g] | Spleen weight ([1]; 50 mg/kg/day into the stomach) [mg] | Initial body weight [1, 4] [g] | Initial body weight [1, 5] [g] | sALT (serum alanine transaminase) ([2]; 10 mg/kg/day) [IU/L] | sFFA (serum free fatty acid) ([2]; 10 mg/kg/day) [mEq/L] | sTC (serum total cholesterol) ([2]; 10 mg/kg/day) [mg/dL] | sTG (serum triglyceride) ([2]; 10 mg/kg/day) [mg/dL] | sVLDL (serum very-low-density lipoprotein) ([2]; 10 mg/kg/day) [mg/dL] | sALT (serum alanine transaminase) ([2]; 50 mg/kg/day) [IU/L] | other results
Glu-Trp-Phe-Tyr (EWFY) [groups 9 (10 mg/kg/day) and 10 (50 mg/kg/day)] | 1.294 ± 0.330 | 30.04 ± 1.70 | 1.028 ± 0.068 | 0.276 ± 0.081 | 0.513 ± 0.132 | 56.6 ± 7.0 | 0.983 ± 0.231 | 28.59 ± 1.82 | 0.985 ± 0.072 | 0.234 ± 0.056 | 0.445 ± 0.077 | 53.5 ± 5.7 | 22.89 ± 1.08 | 22.78 ± 1.79 | 45.6 ± 13.91 | 0.849 ± 0.235 | 147.45 ± 25.19 | 100.53 ± 20.83 | 20.11 ± 4.17 | 34.2 ± 16.20 | sFFA (serum free fatty acid) ([2]; 50 mg/kg/day): 0.757 ± 0.303 mEq/L; sTC (serum total cholesterol) ([2]; 50 mg/kg/day): 135.78 ± 23.48 mg/dL; sTG (serum triglyceride) ([2]; 50 mg/kg/day): 91.47 ± 18.50 mg/dL; sVLDL (serum very-low-density lipoprotein) ([2]; 50 mg/kg/day): 18.29 ± 3.70 mg/dL; hFFA (hepatic free fatty acid) ([3]; 10 mg/kg/day): 111.78 ± 27.75 mEq/L; hTC (hepatic total cholesterol) ([3]; 10 mg/kg/day): 11.04 ± 1.11 mg/dL; hTG (hepatic triglyceride) ([3]; 10 mg/kg/day): 41.45 ± 9.45 mg/dL; hVLDL (hepatic very-low-density lipoprotein) ([3]; 10 mg/kg/day): 8.29 ± 1.89 mg/dL; hFFA (hepatic free fatty acid) ([3]; 50 mg/kg/day): 74.05 ± 19.5 mEq/L; hTC (hepatic total cholesterol) ([3]; 50 mg/kg/day): 5.96 ± 0.91 mg/dL; hTG (hepatic triglyceride) ([3]; 50 mg/kg/day): 22.47 ± 4.84 mg/dL; hVLDL (hepatic very-low-density lipoprotein) ([3]; 50 mg/kg/day): 4.49 ± 0.97 mg/dL
Glu-Trp-Tyr-Phe (EWYF) [groups 7 (10 mg/kg/day) and 8 (50 mg/kg/day)] | 1.146 ± 0.306 | 29.76 ± 1.77 | 0.988 ± 0.084 | 0.263 ± 0.070 | 0.499 ± 0.060 | 55.5 ± 6.4 | 0.909 ± 0.269 | 27.42 ± 1.97 | 0.973 ± 0.089 | 0.199 ± 0.061 | 0.418 ± 0.104 | 51.2 ± 5.9 | 22.84 ± 1.71 | 22.82 ± 1.13 | 39.3 ± 20.17 | 0.782 ± 0.309 | 139.71 ± 20.52 | 96.18 ± 21.42 | 19.24 ± 4.28 | 27.9 ± 14.00 | sFFA (serum free fatty acid) ([2]; 50 mg/kg/day): 0.692 ± 0.24 mEq/L; sTC (serum total cholesterol) ([2]; 50 mg/kg/day): 126.96 ± 24.59 mg/dL; sTG (serum triglyceride) ([2]; 50 mg/kg/day): 81.84 ± 20.39 mg/dL; sVLDL (serum very-low-density lipoprotein) ([2]; 50 mg/kg/day): 16.37 ± 4.08 mg/dL; hFFA (hepatic free fatty acid) ([3]; 10 mg/kg/day): 108.17 ± 26.92 mEq/L; hTC (hepatic total cholesterol) ([3]; 10 mg/kg/day): 10.74 ± 1.38 mg/dL; hTG (hepatic triglyceride) ([3]; 10 mg/kg/day): 39.45 ± 9.93 mg/dL; hVLDL (hepatic very-low-density lipoprotein) ([3]; 10 mg/kg/day): 7.89 ± 1.99 mg/dL; hFFA (hepatic free fatty acid) ([3]; 50 mg/kg/day): 87.71 ± 21.90 mEq/L; hTC (hepatic total cholesterol) ([3]; 50 mg/kg/day): 8.19 ± 1.07 mg/dL; hTG (hepatic triglyceride) ([3]; 50 mg/kg/day): 31.49 ± 8.04 mg/dL; hVLDL (hepatic very-low-density lipoprotein) ([3]; 50 mg/kg/day): 6.29 ± 1.61 mg/dL
Phe-Tyr [FY] | 1.328 ± 0.234 | 30.10 ± 1.29 | 1.037 ± 0.089 | 0.289 ± 0.055 | 0.544 ± 0.077 | 58.8 ± 7.2 | 1.220 ± 0.301 | 28.93 ± 1.27 | 0.991 ± 0.078 | 0.257 ± 0.067 | 0.487 ± 0.098 | 54.2 ± 5.6 | 22.88 ± 1.09 | 22.75 ± 1.10 | 53.1 ± 21.40 | 1.03 ± 0.338 | 158.43 ± 20.37 | 106.80 ± 23.45 | 21.36 ± 4.69 | 42.6 ± 17.60 | sFFA (serum free fatty acid) ([2]; 50 mg/kg/day): 0.905 ± 0.179 mEq/L; sTC (serum total cholesterol) ([2]; 50 mg/kg/day): 146.76 ± 19.73 mg/dL; sTG (serum triglyceride) ([2]; 50 mg/kg/day): 97.80 ± 22.91 mg/dL; sVLDL (serum very-low-density lipoprotein) ([2]; 50 mg/kg/day): 19.56 ± 4.58 mg/dL; hFFA (hepatic free fatty acid) ([3]; 10 mg/kg/day): 119.27 ± 29.07 mEq/L; hTC (hepatic total cholesterol) ([3]; 10 mg/kg/day): 12.06 ± 1.19 mg/dL; hTG (hepatic triglyceride) ([3]; 10 mg/kg/day): 44.58 ± 6.77 mg/dL; hVLDL (hepatic very-low-density lipoprotein) ([3]; 10 mg/kg/day): 8.92 ± 1.35 mg/dL; hFFA (hepatic free fatty acid) ([3]; 50 mg/kg/day): 112.49 ± 25.02 mEq/L; hTC (hepatic total cholesterol) ([3]; 50 mg/kg/day): 10.97 ± 1.2 mg/dL; hTG (hepatic triglyceride) ([3]; 50 mg/kg/day): 41.49 ± 8.52 mg/dL; hVLDL (hepatic very-low-density lipoprotein) ([3]; 50 mg/kg/day): 8.30 ± 1.70 mg/dL
